Data published in publication PMC7438494 (Communications Biology, 2020).
Where two headings read alike, the source gives them in different places.

Target: human ATP synthase (Homo sapiens, UniProt P00846+P05496)
Assay: biochemical
Assay type: biochemical
Details: Human Mito
[1] = 3rd exp (12-20-18), BDQ in DMSO, Bedaquiline 0.05 μM, 60 min
[2] = 4th exp (12-12-28), repeated point, Bedaquiline 5e-6 μM, 60 min
[3] = 4th exp (12-12-28), repeated point, Bedaquiline 5e-5 μM, 60 min

Work on `COc1nc2ccc(Br)cc2cc1[C@@H](c1ccccc1)[C@@](O)(CCN(C)C)c1cccc2ccccc12` [BDQ, Bedaquiline] yielded a Cyanide sensitive (2nd exp (12-17-18), Bedaquiline 0.2 μM, 60 min) of 5.1889 nmol/min/mg, an activity at 0.2 µM (2nd exp (12-17-18), Bedaquiline 0.2 μM, 60 min, read-out: % activity) of 59.9% and a Cyanide sensitive (2nd exp (12-17-18), Bedaquiline 0.5 μM, 60 min) of 5.024 nmol/min/mg. For the same compound, the activity at 0.5 µM (2nd exp (12-17-18), Bedaquiline 0.5 μM, 60 min, read-out: % activity) was 58%, the Cyanide sensitive (2nd exp (12-17-18), Bedaquiline 0.65 μM, 60 min) was 2.666 nmol/min/mg and the activity at 0.65 µM (2nd exp (12-17-18), Bedaquiline 0.65 μM, 60 min, read-out: % activity) was 30.8%. It also gave a Cyanide sensitive (2nd exp (12-17-18), Bedaquiline 0.85 μM, 60 min) of 2.868 nmol/min/mg, an activity at 0.85 µM (2nd exp (12-17-18), Bedaquiline 0.85 μM, 60 min, read-out: % activity) of 33.1% and a Cyanide sensitive (2nd exp (12-17-18), Bedaquiline 2 μM, 60 min) of 0.0982 nmol/min/mg. It also gave an activity at 2 µM (2nd exp (12-17-18), Bedaquiline 2 μM, 60 min, read-out: % activity) of 1.13%, a Cyanide sensitive (2nd exp (12-17-18), Bedaquiline 5 μM, 60 min) of -0.8746 nmol/min/mg and an activity at 5 µM (2nd exp (12-17-18), Bedaquiline 5 μM, 60 min, read-out: % activity) of -10.1%. The activity at 0.005 µM (2 nd exp (18_12_17), BDQ 0.005 uM, read-out: Cyanide sensitive % activity) was 43.8%, the activity at 0.1 µM (2 nd exp (18_12_17), BDQ 0.1 uM, read-out: Cyanide sensitive % activity) was 62% and the activity at 0.2 µM (2 nd exp (18_12_17), BDQ 0.2 uM, read-out: Cyanide sensitive % activity) was 59.9%. It also gave an activity at 0.5 µM (2 nd exp (18_12_17), BDQ 0.5 uM, read-out: Cyanide sensitive % activity) of 58%, an activity at 0.65 µM (2 nd exp (18_12_17), BDQ 0.65 uM, read-out: Cyanide sensitive % activity) of 30.8% and an activity at 0.85 µM (2 nd exp (18_12_17), BDQ 0.85 uM, read-out: Cyanide sensitive % activity) of 33.1%. For the same compound, the activity at 2 µM (2 nd exp (18_12_17), BDQ 2 uM, read-out: Cyanide sensitive % activity) was 1.13%, the Cyanide sensitive (3rd exp (12-20-18), BDQ in DMSO, Bedaquiline 0.0005 μM, 60 min) was 7.6746 nmol/min/mg and the activity at 0.0005 µM (3rd exp (12-20-18), BDQ in DMSO, Bedaquiline 0.0005 μM, 60 min, read-out: % activity) was 81.5%. The Cyanide sensitive (3rd exp (12-20-18), BDQ in DMSO, Bedaquiline 0.005 μM, 60 min) was 8.333 nmol/min/mg, the activity at 0.005 µM (3rd exp (12-20-18), BDQ in DMSO, Bedaquiline 0.005 μM, 60 min, read-out: % activity) was 88.5% and the Cyanide sensitive [1] was 6.758 nmol/min/mg. The activity at 0.05 µM [1] was 71.8%, the Cyanide sensitive (3rd exp (12-20-18), BDQ in DMSO, Bedaquiline 0.1 μM, 60 min) was 8.103 nmol/min/mg and the activity at 0.1 µM (3rd exp (12-20-18), BDQ in DMSO, Bedaquiline 0.1 μM, 60 min, read-out: % activity) was 86%. For the same compound, the Cyanide sensitive (3rd exp (12-20-18), BDQ in DMSO, Bedaquiline 0.2 μM, 60 min) was 5.599 nmol/min/mg, the activity at 0.2 µM (3rd exp (12-20-18), BDQ in DMSO, Bedaquiline 0.2 μM, 60 min, read-out: % activity) was 59.5% and the Cyanide sensitive (3rd exp (12-20-18), BDQ in DMSO, Bedaquiline 0.5 μM, 60 min) was 3.146 nmol/min/mg. For the same compound, the activity at 0.5 µM (3rd exp (12-20-18), BDQ in DMSO, Bedaquiline 0.5 μM, 60 min, read-out: % activity) was 33.4%, the Cyanide sensitive (3rd exp (12-20-18), BDQ in DMSO, Bedaquiline 0.65 μM, 60 min) was 3.762 nmol/min/mg and the activity at 0.65 µM (3rd exp (12-20-18), BDQ in DMSO, Bedaquiline 0.65 μM, 60 min, read-out: % activity) was 40%. For the same compound, the Cyanide sensitive (3rd exp (12-20-18), BDQ in DMSO, Bedaquiline 0.85 μM, 60 min) was 3.062 nmol/min/mg, the activity at 0.85 µM (3rd exp (12-20-18), BDQ in DMSO, Bedaquiline 0.85 μM, 60 min, read-out: % activity) was 32.5% and the Cyanide sensitive (3rd exp (12-20-18), BDQ in DMSO, Bedaquiline 1 μM, 60 min) was -0.07798 nmol/min/mg. The activity at 1 µM (3rd exp (12-20-18), BDQ in DMSO, Bedaquiline 1 μM, 60 min, read-out: % activity) was -0.828%, the Cyanide sensitive (3rd exp (12-20-18), BDQ in DMSO, Bedaquiline 2 μM, 60 min) was 0.1555 nmol/min/mg and the activity at 2 µM (3rd exp (12-20-18), BDQ in DMSO, Bedaquiline 2 μM, 60 min, read-out: % activity) was 1.65%. The Cyanide sensitive (3rd exp (12-20-18), BDQ in DMSO, Bedaquiline 5 μM, 60 min) was -0.3777 nmol/min/mg, the activity at 5 µM (3rd exp (12-20-18), BDQ in DMSO, Bedaquiline 5 μM, 60 min, read-out: % activity) was -4.01% and the activity at 0.0005 µM (3rd exp (18_12_20), BDQ 0.0005 uM, read-out: Cyanide sensitive % activity) was 81.5%. The activity at 0.005 µM (3rd exp (18_12_20), BDQ 0.005 uM, read-out: Cyanide sensitive % activity) was 88.5%, the activity at 0.2 µM (3rd exp (18_12_20), BDQ 0.2 uM, read-out: Cyanide sensitive % activity) was 59.5% and the activity at 0.5 µM (3rd exp (18_12_20), BDQ 0.5 uM, read-out: Cyanide sensitive % activity) was 33.4%. For the same compound, the activity at 0.65 µM (3rd exp (18_12_20), BDQ 0.65 uM, read-out: Cyanide sensitive % activity) was 40%, the activity at 0.85 µM (3rd exp (18_12_20), BDQ 0.85 uM, read-out: Cyanide sensitive % activity) was 32.5% and the activity at 1 µM (3rd exp (18_12_20), BDQ 1 uM, read-out: Cyanide sensitive % activity) was -0.84%. It also gave an activity at 2 µM (3rd exp (18_12_20), BDQ 2 uM, read-out: Cyanide sensitive % activity) of 1.68%, an activity at 5 µM (3rd exp (18_12_20), BDQ 5 uM, read-out: Cyanide sensitive % activity) of -4.13% and a Cyanide sensitive (4th exp (12-12-28), BDQ in DMSO, Bedaquiline 5e-6 μM, 60 min) of 6.055 nmol/min/mg. For the same compound, the Cyanide sensitive (4th exp (12-12-28), BDQ in DMSO, Bedaquiline 5e-5 μM, 60 min) was 5.641 nmol/min/mg, the Cyanide sensitive (4th exp (12-12-28), BDQ in DMSO, Bedaquiline 0.0005 μM, 60 min) was 4.664 nmol/min/mg and the activity at 0.0005 µM (4th exp (12-12-28), BDQ in DMSO, Bedaquiline 0.0005 μM, 60 min, read-out: % activity) was 52.7%. For the same compound, the Cyanide sensitive (4th exp (12-12-28), BDQ in DMSO, Bedaquiline 0.005 μM, 60 min) was 4.551 nmol/min/mg, the activity at 0.005 µM (4th exp (12-12-28), BDQ in DMSO, Bedaquiline 0.005 μM, 60 min, read-out: % activity) was 51.4% and the Cyanide sensitive (4th exp (12-12-28), BDQ in DMSO, Bedaquiline 0.1 μM, 60 min) was 6.3 nmol/min/mg. The activity at 0.1 µM (4th exp (12-12-28), BDQ in DMSO, Bedaquiline 0.1 μM, 60 min, read-out: % activity) was 71.2%, the Cyanide sensitive (4th exp (12-12-28), BDQ in DMSO, Bedaquiline 0.2 μM, 60 min) was 4.408 nmol/min/mg and the activity at 0.2 µM (4th exp (12-12-28), BDQ in DMSO, Bedaquiline 0.2 μM, 60 min, read-out: % activity) was 49.8%. For the same compound, the Cyanide sensitive (4th exp (12-12-28), BDQ in DMSO, Bedaquiline 0.5 μM, 60 min) was 4.526 nmol/min/mg, the activity at 0.5 µM (4th exp (12-12-28), BDQ in DMSO, Bedaquiline 0.5 μM, 60 min, read-out: % activity) was 51.2% and the Cyanide sensitive (4th exp (12-12-28), BDQ in DMSO, Bedaquiline 0.65 μM, 60 min) was 3.3225 nmol/min/mg. The activity at 0.65 µM (4th exp (12-12-28), BDQ in DMSO, Bedaquiline 0.65 μM, 60 min, read-out: % activity) was 37.6%, the Cyanide sensitive (4th exp (12-12-28), BDQ in DMSO, Bedaquiline 1 μM, 60 min) was 0.7592 nmol/min/mg and the activity at 1 µM (4th exp (12-12-28), BDQ in DMSO, Bedaquiline 1 μM, 60 min, read-out: % activity) was 8.58%. It also gave a Cyanide sensitive (4th exp (12-12-28), BDQ in DMSO, Bedaquiline 2 μM, 60 min) of 0.2448 nmol/min/mg, an activity at 2 µM (4th exp (12-12-28), BDQ in DMSO, Bedaquiline 2 μM, 60 min, read-out: % activity) of 2.77% and a Cyanide sensitive (4th exp (12-12-28), BDQ in DMSO, Bedaquiline 5 μM, 60 min) of -0.2191 nmol/min/mg. For the same compound, the activity at 5 µM (4th exp (12-12-28), BDQ in DMSO, Bedaquiline 5 μM, 60 min, read-out: % activity) was -2.48%, the Cyanide sensitive (4th exp (12-12-28), BDQ in DMSO, Bedaquiline 10 μM, 60 min) was -0.1822 nmol/min/mg and the activity at 10 µM (4th exp (12-12-28), BDQ in DMSO, Bedaquiline 10 μM, 60 min, read-out: % activity) was -2.06%. For the same compound, the Repeted points [2] was 6.965 nmol/min/mg, the “Repeted points % activity” value [2] was 78.7332% and the Repeted points [3] was 6.5997 nmol/min/mg. The “Repeted points % activity” value [3] was 74.6041%, the Repeted points (4th exp (12-12-28), repeated point, Bedaquiline 1 μM, 60 min) was 0.7668 nmol/min/mg and the activity at 1 µM (4th exp (12-12-28), repeated point, Bedaquiline 1 μM, 60 min, read-out: Repeted points % activity) was 8.67%. For the same compound, the activity at 10 µM (4th exp (18_12_26) duplicate, BDQ 10 uM, read-out: Cyanide sensitive % activity) was -2.1%, the activity at 0.1 µM (4th exp (18_12_26), BDQ 0.1 uM, read-out: Cyanide sensitive % activity) was 71.2% and the activity at 0.2 µM (4th exp (18_12_26), BDQ 0.2 uM, read-out: Cyanide sensitive % activity) was 49.8%. The activity at 0.5 µM (4th exp (18_12_26), BDQ 0.5 uM, read-out: Cyanide sensitive % activity) was 51.2% and the activity at 0.65 µM (4th exp (18_12_26), BDQ 0.65 uM, read-out: Cyanide sensitive % activity) was 37.6%.
